PMC7211202 (Investigational New Drugs, 2019)
Several values for one entry are separate records, joined by “and”; a condition that tells them apart may be missing. Equal entries are not always repeated. Entries after “also recorded” stand apart in the source; their conditions may differ. Where two headings read alike, the source gives them in different places.

Key:
[1] = Plasma AMG 232 pharmacokinetics (HPLC-MS, non-compartmental analysis); assay type: in vivo, human; conditions: for AUC(0-t) / Cmax / Tmax / Vd/F: human, plasma, oral; for AUC(0-t): read-out: AUC24h, mean (SD); for Cmax: read-out: Cmax, mean (SD); for Tmax: read-out: tmax, median (range); for Vd/F: read-out: Vz/F, mean (SD)
Description: Non-compartmental analysis was performed using WinNonlin Professional software, version 6.3. Parameters were summarized descriptively.

[2] = tested on: P53WT solid tumors or multiple myeloma; test: Tumor response (RECIST 1.1, Macdonald, IMWG criteria); assay type: in vivo, human
Description: Efficacy response was assessed using revised Response Evaluation Criteria in Solid Tumors (RECIST), version 1.1 [25] Macdonald criteria for GBM [26] or International Myeloma Working Group (IMWG) response criteria for multiple myeloma.

[3] = tested on: MDM2-p53 interaction; conditions: cited from earlier work
[4] = 15 mg, Day 1, dose escalation, 15 mg (n = 3)
[5] = 15 mg, Day 7, dose escalation, 15 mg (n = 3)
[6] = 30 mg, Day 1, dose escalation, 30 mg (n = 3)
[7] = 30 mg, Day 7, dose escalation, 30 mg (n = 3)
[8] = 60 mg, Day 1, dose escalation, 60 mg (n = 2–4)
[9] = 60 mg, Day 7, dose escalation, 60 mg (n = 2–4)
[10] = 120 mg, Day 1, dose escalation, 120 mg (n = 4–7)
[11] = 120 mg, Day 7, dose escalation, 120 mg (n = 4–7)
[12] = 240 mg, Day 1, 240-mg dose expansion, DDLPS (n = 6–10)
[13] = 240 mg, Day 1, 240-mg dose expansion, ER + PR+ Breast (n = 6–8)
[14] = 240 mg, Day 1, 240-mg dose expansion, ER + PR– Breast (n = 4)
[15] = 240 mg, Day 1, 240-mg dose expansion, GBM (n = 6–9)
[16] = 240 mg, Day 1, 240-mg dose expansion, Multiple Myeloma (n = 7–10)
[17] = 240 mg, Day 1, 240-mg dose expansion, Other Solid (n = 9–16)
[18] = 240 mg, Day 1, 240-mg dose expansion, Total (n = 47–67)
[19] = 240 mg, Day 1, 240-mg dose expansion, WDLPS (n = 9–10)
[20] = 240 mg, Day 1, Parts 1 and 2, 240 mg (n = 54–75)
[21] = 240 mg, Day 1, dose escalation, 240 mg (n = 7–8)
[22] = 240 mg, Day 7, 240-mg dose expansion, DDLPS (n = 6–10)
[23] = 240 mg, Day 7, 240-mg dose expansion, ER + PR+ Breast (n = 6–8)
[24] = 240 mg, Day 7, 240-mg dose expansion, ER + PR– Breast (n = 4)
[25] = 240 mg, Day 7, 240-mg dose expansion, GBM (n = 6–9)
[26] = 240 mg, Day 7, 240-mg dose expansion, Multiple Myeloma (n = 7–10)
[27] = 240 mg, Day 7, 240-mg dose expansion, Other Solid (n = 9–16)
[28] = 240 mg, Day 7, 240-mg dose expansion, Total (n = 47–67)
[29] = 240 mg, Day 7, 240-mg dose expansion, WDLPS (n = 9–10)
[30] = 240 mg, Day 7, Parts 1 and 2, 240 mg (n = 54–75)
[31] = 240 mg, Day 7, dose escalation, 240 mg (n = 7–8)
[32] = 300 mg, Day 1, dose escalation, 300 mg (n = 3–4)
[33] = 300 mg, Day 7, dose escalation, 300 mg (n = 3–4)
[34] = 360 mg, Day 1, dose escalation, 360 mg (n = 3–4)
[35] = 360 mg, Day 7, dose escalation, 360 mg (n = 3–4)
[36] = 480 mg, Day 1, dose escalation, 480 mg (n = 5–6)
[37] = 480 mg, Day 7, dose escalation, 480 mg (n = 5–6)
[38] = 240-mg dose expansion, ER + PR+ breast cancer
[39] = 240-mg dose expansion, ER + PR– breast cancer
[40] = 240-mg dose expansion, breast cancer
[41] = 240-mg dose expansion, multiple myeloma
[42] = 240-mg dose expansion, other solid tumors

## CC(C)[C@@H](CS(=O)(=O)C(C)C)N1C(=O)[C@@](C)(CC(=O)O)C[C@H](c2cccc(Cl)c2)[C@H]1c1ccc(Cl)cc1 [AMG 232]
[1]; 15–480 mg QD for 7 days Q3W
  Dose proportionality of plasma concentrations: increased generally dose proportionally
[1]; [4]
  AUC(0-t): 884 ng·h/mL
  Cmax: 169 ng/mL
  Tmax: 3.1 h
[1]; [5]
  AUC(0-t): 949 ng·h/mL
  Cmax: 130 ng/mL
  Vd/F: 497 L
  Tmax: 3.1 h
[1]; [6]
  AUC(0-t): 1960 ng·h/mL
  Cmax: 255 ng/mL
  Tmax: 3 h
[1]; [7]
  AUC(0-t): 2830 ng·h/mL
  Cmax: 259 ng/mL
  Tmax: 3 h
[1]; [8]
  AUC(0-t): 2950 ng·h/mL
  Cmax: 527 ng/mL
  Tmax: 3 h
[1]; [9]
  AUC(0-t): 4000 ng·h/mL
  Cmax: 457 ng/mL
  Vd/F: 360 L
  Tmax: 4 h
[1]; [10]
  AUC(0-t): 5160 ng·h/mL
  Cmax: 599 ng/mL
  Tmax: 3 h
[1]; [11]
  AUC(0-t): 8940 ng·h/mL
  Cmax: 868 ng/mL
  Vd/F: 664 L
  Tmax: 3 h
[1]; [12]
  AUC(0-t): 8010 ng·h/mL
  Cmax: 986 ng/mL
  Tmax: 2 h
[1]; [13]
  AUC(0-t): 9660 ng·h/mL
  Cmax: 1920 ng/mL
  Tmax: 2.8 h
[1]; [14]
  AUC(0-t): 9430 ng·h/mL
  Cmax: 1360 ng/mL
  Tmax: 2.1 h
[1]; [15]
  AUC(0-t): 5360 ng·h/mL
  Cmax: 978 ng/mL
  Tmax: 3 h
[1]; [16]
  Cmax: 1320 ng/mL
  Tmax: 2 h
[1]; [17]
  AUC(0-t): 10800 ng·h/mL
  Cmax: 1670 ng/mL
  Tmax: 3 h
[1]; [18]
  AUC(0-t): 8830 ng·h/mL
  Cmax: 1390 ng/mL
  Tmax: 3 h
[1]; [19]
  AUC(0-t): 9260 ng·h/mL
  Cmax: 1350 ng/mL
  Tmax: 3.1 h
[1]; [20]
  AUC(0-t): 8480 ng·h/mL
  Cmax: 1350 ng/mL
  Tmax: 3 h
[1]; [21]
  AUC(0-t): 5690 ng·h/mL
  Cmax: 1030 ng/mL
  Tmax: 2 h
[1]; [22]
  AUC(0-t): 10800 ng·h/mL
  Cmax: 1050 ng/mL
  Vd/F: 537 L
  Tmax: 3 h
[1]; [23]
  Cmax: 1350 ng/mL
  Vd/F: 689 L
  Tmax: 2.8 h
[1]; [24]
  AUC(0-t): 9960 ng·h/mL
  Cmax: 1620 ng/mL
  Vd/F: 814 L
  Tmax: 1 h
[1]; [25]
  AUC(0-t): 9210 ng·h/mL
  Cmax: 988 ng/mL
  Vd/F: 1010 L
  Tmax: 2.8 h
[1]; [26]
  AUC(0-t): 8450 ng·h/mL
  Cmax: 1190 ng/mL
  Vd/F: 859 L
  Tmax: 1.1 h
[1]; [27]
  AUC(0-t): 17200 ng·h/mL
  Cmax: 2200 ng/mL
  Vd/F: 353 L
  Tmax: 2.9 h
[1]; [28]
  AUC(0-t): 12300 ng·h/mL
  Cmax: 1420 ng/mL
  Vd/F: 627 L
  Tmax: 2.8 h
[1]; [29]
  AUC(0-t): 15700 ng·h/mL
  Cmax: 1230 ng/mL
  Vd/F: 389 L
  Tmax: 3 h
[1]; [30]
  AUC(0-t): 12100 ng·h/mL
  Cmax: 1440 ng/mL
  Vd/F: 613 L
  Tmax: 2.9 h
[1]; [31]
  AUC(0-t): 10600 ng·h/mL
  Cmax: 1560 ng/mL
  Vd/F: 523 L
  Tmax: 3 h
[1]; [32]
  AUC(0-t): 14700 ng·h/mL
  Cmax: 1740 ng/mL
  Tmax: 3 h
[1]; [33]
  AUC(0-t): 25000 ng·h/mL
  Cmax: 2090 ng/mL
  Vd/F: 762 L
  Tmax: 3.1 h
[1]; [34]
  AUC(0-t): 15800 ng·h/mL
  Cmax: 2380 ng/mL
  Tmax: 2 h
[1]; [35]
  AUC(0-t): 15500 ng·h/mL
  Cmax: 2050 ng/mL
  Vd/F: 423 L
  Tmax: 2 h
[1]; [36]
  AUC(0-t): 18800 ng·h/mL
  Cmax: 2630 ng/mL
  Tmax: 3 h
[1]; [37]
  AUC(0-t): 18400 ng·h/mL
  Cmax: 1750 ng/mL
  Vd/F: 585 L
  Tmax: 3.1 h
[1]; Day 7, Parts 1 and 2, All Doses (n = 76–97)
  Vd/F: 615 L
[2]; 240-mg dose expansion, DDLPS
  Stable disease as a best result: 7 of 10
  median duration of stable disease: 2.0 months
[2]; [38]
  duration of stable disease, range: 0.9–4.0 months
  median duration of stable disease: 2.0 months
[2]; [39]
  duration of stable disease, range: 0.9–3.8 months
  median duration of stable disease: 1.4 months
[2]; 240-mg dose expansion, GBM
  Stable disease as a best result: six of 10 and 6 of 10
  median duration of stable disease: 1.8 months
[2]; 240-mg dose expansion, WDLPS
  duration of stable disease, range: 1.9–6.1 months
  median duration of stable disease: 3.9 months
[2]; [40]
  Stable disease as a best result: 7 of 12
  duration of stable disease, range: 1.7–4.0 months
  median duration of stable disease: 1.4–2.0 months and 2.0 months
[2]; [41]
  Stable disease as a best result: 5 of 10
  duration of stable disease, range: 1.2–2.0 months
[2]; [42]
  Stable disease as a best result: 10 of 16
  median duration of stable disease: 3.3 months
[2]; 240-mg dose expansion, overall
  Patients with progressive disease: 15 (22%) n (%)
  Patients with stable disease: 45 (66%) n (%)
  duration of stable disease, range: 0.5–12.9 months
  median duration of stable disease: 2.0 months
[2]; central evaluation
  Patients with unconfirmed partial responses: 4%
[2]; central evaluation, patient with WDLPS
  Duration of unconfirmed partial response: 2.4 months
[2]; central evaluation, patient with breast cancer
  Duration of unconfirmed partial response: 2.0 months
[2]; central evaluation, patient with squamous cell carcinoma
  Duration of unconfirmed partial response: 0.1 months
[2]; dose escalation
  Patients with stable disease: 31 (80%) n (%)
  duration of stable disease, range: 0.7–22.4 mo
  median duration of stable disease: 3.1 months
[2]; dose escalation, based on non-target lesions
  Patients with non-complete response/non-progressive disease: 2 (5%) n (%)
[2]; local evaluation, dose escalation and expansion
  Objective responses: no responses; also recorded: no objective response
[3]
  affinity of blocking the MDM2-p53 interaction: picomolar
